Data set [1] can be described thus: Gelation time in polyurethane synthesis model reaction with tin catalyst. To be noted: for Gelation time In argon t, s (65ºC) / Gelation time On air t, s (65ºC): 65 °C; for Gelation time In argon t, s (90ºC) / Gelation time On air t, s (90ºC): 90 °C; for Catalyst effect 65°C: gel time with no catalyst (2580 seconds) divided by gel time with 0.5 mol % of the catalyst; for Catalyst effect 90C: gel time with no catalyst (750 seconds) divided by gel time with 0.5 mol % of the catalyst; for Latency: latent if gelation did not occur at room temperature for two hours at a catalyst concentration of 1 mol%. The protocol:
A method for using the above-mentioned tin(IV) complexes to produce polyurethane is described in the following. The method consists of adding a solution of the above-mentioned catalyst in an organic solvent (THF) to a two-component mixture at a given temperature. The method is explained by examples of its implementation: Specifically, to a vigorously stirred solution of 4.5 ml (5.1 g, 8.4 mmol) polyethyleneglycol-600 1.35 ml (1.40 g, 8.3 mmol), hexamethylene diisocyanate was added (temperature control was performed by thermostating the reaction mixture at room temperature, 65°C, 90°C before adding the catalyst), and then the solution of the catalyst to be tested in 0.25 ml in THF was added as fast as possible. The flask with the reactants then was put into an oil bath at room temperature, 65°C or 90°C (depending on the experiment), and then time count was started. The end of reaction was defined as the stop of the magnetic stirrer. The time from start to stop is taken as the gelation time. Experiments conducted in air and in an inert gas atmosphere at different temperatures were compared.
The molar concentration of the catalyst is given with respect to the molar amount of the polyisocyanate. Table 1: Gelation time with selected tin catalysts.

Data set [2] is described as follows: Stability on dissolution in wet organic solvent. The format is physicochemical. The following applies: wet / moist organic solvent. An excerpt: (§1) The alkoxy-based tin complexes (DMAE)2Sn(OtBu)2 and (DMAEIDE)Sn(OtBu)2 were obtained using procedures similar to the synthesis of the phenoxy-complexes. These complexes are stable under dry conditions.
(§2) Of special stability are complexes based on tetradentate Salen and Salan type ligands such as: […]

The nature of data set [3]: Stability in ambient / moist air (visible change of powder on dry surface). It is filed as physicochemical. To be noted: for Air stability: powder poured onto a dry surface, left in ambient air.
Text: as §1, §2

Data set [4] is described as follows: Solubility of catalyst in organic solvents. It is filed as physicochemical.

The text below walks through data of patent EP4534577A1, “NON-TOXIC LATENT POLYMERIZATION CATALYSTS FOR POLYURETHANES BASED ON TIN (IV) CHELATE COMPLEXES” (Tech Synt Ltd, priority 2023, dated 2025).

Molecules are shown by their SMILES.

In the case of `CN(C)CC[O][Sn]([O]CCN(C)C)([O]C(C)(C)C)[O]C(C)(C)C` [(DMAE)2Sn(OtBu)2, reference compound], the “gel time compared with no catalyst” value in data set [1] (0.1 mol% concentration, under air) was “the same as for no catalyst”. Besides, in data set [1] (c 0.1 % mol.), the “Gelation time In argon t, s (65ºC)” value was 410 s; the “Gelation time In argon t, s (90ºC)” value was determined as 185 s; the “Gelation time On air t, s (65ºC)” value is 2580 s; the “Gelation time On air t, s (90ºC)” value is reported as 750 s. Also, in data set [1] (c 1 % mol.), the “Gelation time In argon t, s (65ºC)” value is reported as 230 s; the “Gelation time In argon t, s (90ºC)” value is listed as 150 s; the “Gelation time On air t, s (65ºC)” value was 540 s; the “Gelation time On air t, s (90ºC)” value is given as 280 s. In addition, the “Decomposition on dissolution in wet organic solvent” value in data set [2] is given as “instantly leads to the decomposition”. Further, the Hygroscopicity result in data set [3] was “rather hygroscopic”. In addition, in data set [3] (powder poured on a dry surface in moist air), the “Visible change of powder in moist air” value is listed as “change their appearance within half an hour”.

As for `CN1Cc2cc(C(C)(C)C)cc(C(C)(C)C)c2[O][Sn]2([O]c3c(cc(C(C)(C)C)cc3C(C)(C)C)C1)[O]c1c(cc(C(C)(C)C)cc1C(C)(C)C)CN(C)Cc1cc(C(C)(C)C)cc(C(C)(C)C)c1[O]2`, in data set [1], the “Catalyst effect 65°C” value is listed as 2.4, the “Catalyst effect 90C” value is 3.8 and the Latency result is “yes”. Moreover, in data set [4], the “Solubility Alkanes” value was “++ (between 0.1 and 1.0)”; the “Solubility CH2Cl2/CHCl3” value was “+++ (higher than 1.0 mol/L)”; the “Solubility PhMe” value is given as “+++ (higher than 1.0 mol/L)”; the “Solubility THF” value is “+++ (higher than 1.0 mol/L)”. Further, in data set [3], the Air stability result is “good (If there was no visible change within an hour, such as discoloration or melting into droplets due to hygroscopicity, then the stability of the compound was considered good)”.

With `CC(C)(C)[O][Sn]1([O]C(C)(C)C)[O]c2c(cc(C(C)(C)C)cc2C(C)(C)C)CN2CCN(CC2)Cc2cc(C(C)(C)C)cc(C(C)(C)C)c2[O]1`, in data set [1], the “Catalyst effect 65°C” value stood at 5.7, the “Catalyst effect 90C” value is recorded as 2.8 and the Latency entry is given as “yes”. Moreover, in data set [4], the “Solubility Alkanes” value is given as “+- (less than 0.01 mol/L)”; the “Solubility CH2Cl2/CHCl3” value is “+++ (higher than 1.0 mol/L)”; the “Solubility PhMe” value is on record as “+++ (higher than 1.0 mol/L)”; the “Solubility THF” value was “++ (between 0.1 and 1.0)”. Besides, the Air stability result in data set [3] is on record as “excellent (Excellent stability was attributed to compounds for which no visible change was found within 24 hours)”.

As for `C1=NCC[O][Sn]2([O]CCN=Cc3ccccc3[O]2)[O]c2ccccc21` (stereo not drawn), in data set [1], the “Catalyst effect 65°C” value came out at 12.3, the “Catalyst effect 90C” value was 6.3 and the Latency entry was “yes”. Besides, in data set [4], the “Solubility Alkanes” value is “+- (less than 0.01 mol/L)”; the “Solubility CH2Cl2/CHCl3” value was “+- (less than 0.01 mol/L)”; the “Solubility PhMe” value is “+ (between 0.01 and 0.1 mol/L)”; the “Solubility THF” value is “+ (between 0.01 and 0.1 mol/L)”. Also, the Air stability entry in data set [3] was “good (If there was no visible change within an hour, such as discoloration or melting into droplets due to hygroscopicity, then the stability of the compound was considered good)”.
